The record followed here is patent publication US5190922A (priority 1991, dated 1993).

Like-named read-outs stand apart in the source and are kept apart here. Non-standard residues stand in square brackets, D forms with d. Residues, ends and D or L forms follow the SMILES beside them. *: point of attachment. NMeF = CN[C@@H](Cc1ccccc1)C(=O)O; Cha = N[C@@H](CC1CCCCC1)C(=O)O; dCha = N[C@H](CC1CCCCC1)C(=O)O; X4 = NCCCN(CCc1ccccc1)*; X3 = N=C(N)NCCCN*; X1 = N#CCCN*

The target of the test is T1, C5a Receptor (Homo sapiens, UniProt P21730).
T1 construct: 2.5-25 μg/mL of purified PMNL membrane fragments; from tissue; host or cells: polymorphonuclear leukocyte (PMNL) membrane fragments
T1 sequence (P21730 1-350): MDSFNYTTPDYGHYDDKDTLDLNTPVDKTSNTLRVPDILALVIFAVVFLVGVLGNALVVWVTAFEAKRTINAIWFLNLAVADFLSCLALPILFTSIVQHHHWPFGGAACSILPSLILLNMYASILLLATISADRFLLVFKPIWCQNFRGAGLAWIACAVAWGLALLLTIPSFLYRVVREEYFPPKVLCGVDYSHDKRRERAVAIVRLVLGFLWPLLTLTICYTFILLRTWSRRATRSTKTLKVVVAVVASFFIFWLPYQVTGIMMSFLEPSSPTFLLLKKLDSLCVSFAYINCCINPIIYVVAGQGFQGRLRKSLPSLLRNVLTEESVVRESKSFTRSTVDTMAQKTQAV
The experiment in a line: Anaphylatoxin receptor binding Ki determination (inhibition of 125I-C5a binding to PMNL membrane fragments). The protocol: Specific inhibition of C5 a binding activity of representative compounds of the present invention was measured using 0.03-1 nM ^125 I-C5 a with 2.5-25 μg/mL of purified PMNL membrane fragments (Borregaard, N.; Heiple, J. M.; Simons, E. R.; and Clark, R. A. J. Cell. Biol. 1983, 97, 52-61.). Free and membrane-bound ligand were separated by filtration.

[1] abbreviates: 0.03-1 nM 125I-C5a, 2.5-25 μg/mL purified PMNL membrane fragments, filtration, read-out: Ki (In vitro C5a Receptor Binding Potency).

As a reminder, the Ki is a measure of affinity in units of concentration, obtained from inhibition or displacement. As for `CN[C@@H](Cc1ccccc1)C(=O)N[C@@H](CCCCN)C(=O)N1CCC[C@H]1C(=O)N[C@H](CC1CCCCC1)C(=O)N[C@@H](Cc1ccccc1)C(=O)NCCCNC(=N)N` [Example 201, (N-Methyl)Phenylalanyl-Lysyl-Prolyl-{(2R)-2-Amino-3-cyclohexylpropanoyl}-Phenylalanyl-N-(3-Guanidinopropyl)amide] (H-[NMeF]KP[dCha]F-X3), the affinity corresponds to a Ki of 0.69 µM.
`N=C(N)NCCC[C@@H](NC[C@H](Cc1ccccc1)NC(=O)[C@@H](CC1CCCCC1)NC(=O)[C@@H]1CCCN1C(=O)[C@H](CCCCN)NC(=O)CCCCc1ccccc1)C(=O)O` [Example 202, {5-Phenylvaleryl}-Lysyl-Prolyl -{(2R)-2-Amino-3-cyclohexylpropanoyl}-Phenylalanyl-.PSI.(CH2 NH)-DArginyl-OH]: the Ki under setting [1] worked out at 52 µM.
Same read-out and setting: to `CN[C@@H](Cc1ccccc1)C(=O)N[C@@H](CCCCN)C(=O)N1CCC[C@H]1C(=O)N[C@H](CC1CCCCC1)C(=O)N[C@@H](CC1CCCCC1)C(=O)NCCC#N` [Example 223, (N-Methyl)Phenylalanyl-Lysyl-Prolyl-{(2R)-2-Amino-3-cyclohexylpropanoyl}-{(2S)-2-Amino-3-cyclohexylpropanoyl}-N-(2-Cyanoethyl)amide] (H-[NMeF]KP[dCha][Cha]-X1) belongs 1.2 µM; to `CN[C@@H](Cc1ccccc1)C(=O)N[C@@H](CCCCN)C(=O)N1CCC[C@H]1C(=O)N[C@H](CC1CCCCC1)C(=O)N(CCCN)CCc1ccccc1` [Example 225, (N-Methyl)Phenylalanyl-Lysyl-Prolyl-{(2R)-2-Amino-3-cyclohexylpropanoyl}-N-3-Aminopropyl-N-2-Phenethylamide] (H-[NMeF]KP[dCha]-X4), 46 µM.
